# Experiments:
# S1P3 = S1P3 (Homo sapiens (Human), UniProt Q99500); assay: Receptor [35S] GTPγS Binding Assay, S1P3; assay type: biochemical; conditions: membranes from EDG3-Gal5-bla HEK293T cells
# Procedure: (§1) Receptor [^35S] GTPγS Binding Assays:
# (§2) Compounds were loaded in a 384 Falcon v-bottom plate (0.5 μl/well in an 11 point, 3-fold dilution). Membranes prepared from S1P1/CHO cells or EDG3-Gal5-bla HEK293T cells (EDG3 equivalent S1P3) were added to the compound plate ([…], final protein 3 μg/well) with MULTIDROP®. [^35S]GTP (1250 Ci/mmol, Perkin Elmer) was diluted in assay buffer: 20 mM HEPES, pH7.5, 10 mM MgCl2, 150 mM NaCl, 1 mM EGTA (ethylene glycol tetraacetic acid), 1 mM DTT (Dithiothreitol), 10 μM GDP, 0.1% fatty acid free BSA, and 10 μg/ml Saponin to 0.4 nM. 40 μl of the [35S] GTP solution was added to the compound plate with a final concentration of 0.2 nM. The reaction was kept at room temperature for 45 min. At the end of incubation, all the mixtures in the compound plate were transferred to Millipore 384-well FB filter plates via the VELOCITY11 ® Vprep liquid handler. The filter plate was washed with water 4 times by using the manifold Embla plate washer and dried at 60° C. for 45 min. MicroScint 20 scintillation fluid (30 μl) was added to each well for counting on the Packard TOPCOUNT®. EC50 is defined as the agonist concentration that corresponds to 50% of the Ymax (maximal response) obtained for each individual compound tested.
# S1P1 [1] = target: T1, S1P1 (Homo sapiens (Human), UniProt P21453); assay: S1P1 Binding Assay (33P-S1P ligand competition, CHO membranes); conditions: membranes from CHO cells expressing human S1P1
# T1 sequence (P21453 whole entry): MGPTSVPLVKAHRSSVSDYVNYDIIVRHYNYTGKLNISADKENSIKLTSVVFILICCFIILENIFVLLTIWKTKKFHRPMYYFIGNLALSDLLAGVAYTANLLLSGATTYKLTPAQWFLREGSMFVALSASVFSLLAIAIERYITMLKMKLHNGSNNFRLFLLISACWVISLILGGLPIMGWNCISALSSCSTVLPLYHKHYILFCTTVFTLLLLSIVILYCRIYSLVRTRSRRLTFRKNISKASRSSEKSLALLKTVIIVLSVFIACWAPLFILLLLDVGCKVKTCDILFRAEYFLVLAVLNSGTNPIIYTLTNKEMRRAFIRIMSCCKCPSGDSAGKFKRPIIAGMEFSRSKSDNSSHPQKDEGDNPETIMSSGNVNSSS
# Procedure: Membranes were prepared from CHO cells expressing human S1P1. Cells pellets (1×10^9 cells/pellet) were suspended in buffer containing 20 mM HEPES (4-(2-hydroxyethyl)-1-piperazineethanesulfonic acid), pH 7.5, 50 mM NaCl, 2 mM EDTA (ethylenediamine tetraacetic acid) and Protease Inhibitor cocktail (Roche), and disrupted on ice using the Polytron homogenizer. The homogenate was centrifuged at 20,000 rpm (48,000 g) and the supernatant was discarded. The membrane pellets were resuspended in buffer containing 50 mM HEPES, pH 7.5, 100 mM NaCl, 1 mM MgCl2, 2 mM EDTA and stored in aliquots at −80° C. after protein concentration determination.
# Membranes (2 μg/well) and 0.03 nM final concentration of ^33P-S1P ligand (1 mCi/ml, Perkin Elmer or American Radiolabeled Chemicals) diluted in assay buffer (50 mM HEPES, pH7.4, 5 mM MgCl2, 1 mM CaCl2), 0.5% fatty acid free BSA (bovine serum albumin), 1 mM NaF) were added to the compound plates (384 Falcon v-bottom plate (0.5 μl/well in a 11 point, 3-fold dilution). Binding was performed for 45 minutes at room temperature, terminated by collecting the membranes onto 384-well Millipore FB filter plates, and radioactivity was measured by TOPCOUNT®. The competition data of the test compounds over a range of concentrations was plotted as percentage inhibition of radioligand specific binding. The IC50 is defined as the concentration of competing ligand needed to reduce specific binding by 50%.
# S1P1 [2] = target: T1, S1P1; assay: Receptor [35S] GTPγS Binding Assay, S1P1; assay type: biochemical; conditions: membranes from S1P1/CHO cells
# Procedure: as §1, §2
# A smaller value for GTPγS S1P1 EC50 value indicated greater activity for the compound in the GTPγS S1P1 binding assay. Thus the compounds of the present invention may be used in treating, preventing, or curing various S1P1 receptor-related conditions. The compounds have potential use in treating, preventing, or curing autoimmune and inflammatory diseases such as multiple sclerosis, rheumatoid arthritis, inflammatory bowel disease, lupus, psoriasis, or minimizing or reducing rejection of transplanted organs.
# Sequence of S1P3 (Q99500 whole entry): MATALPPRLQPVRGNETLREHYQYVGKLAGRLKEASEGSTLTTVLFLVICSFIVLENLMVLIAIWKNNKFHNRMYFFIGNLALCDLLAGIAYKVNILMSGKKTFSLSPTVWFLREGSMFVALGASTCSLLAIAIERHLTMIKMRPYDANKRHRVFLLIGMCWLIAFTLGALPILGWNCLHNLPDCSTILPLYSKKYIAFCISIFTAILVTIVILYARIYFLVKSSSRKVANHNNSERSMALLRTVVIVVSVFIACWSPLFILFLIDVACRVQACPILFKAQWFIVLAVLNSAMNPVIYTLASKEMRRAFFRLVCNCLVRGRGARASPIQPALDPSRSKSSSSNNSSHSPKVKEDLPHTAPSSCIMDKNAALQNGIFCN
SMILES,EC50 (S1P3),IC50 (S1P1 [1]),EC50 (S1P1 [2])
"C/C(=N\OCc1ccc(C2CCCCC2)c(C(F)(F)F)c1)c1ccc(C(=O)N2CCC(N)(COP(=O)(O)O)C2)cc1 (single isomer, unassigned) [Example 59, (E)-(3-amino-1-(4-(1-(((4-cyclohexyl-3-(trifluoromethyl)benzyl)oxy)imino)ethyl)benzoyl)pyrrolidin-3-yl)methyl dihydrogen phosphate]",> 3.13 µM,0.0105 µM,0.136 µM
"C/C(=N\OCc1ccc(C2CCCCC2)c(C(F)(F)F)c1)c1ccc(C(=O)N2CCC(N)(COP(=O)(O)O)C2)cc1 (single isomer, unassigned) [Example 60, (E)-(3-amino-1-(4-(1-(((4-cyclohexyl-3-(trifluoromethyl)benzyl)oxy)imino)ethyl)benzoyl)pyrrolidin-3-yl)methyl dihydrogen phosphate]",> 6.25 µM,0.0284 µM,0.434 µM
"C/C(=N\OCCCc1ccccc1)c1ccc(C(=O)N2CCC(N)(COP(=O)(O)O)C2)cc1 (single isomer, unassigned) [Example 61, (E)-(3-amino-1-(4-(1-((3-phenylpropoxy)imino)ethyl)benzoyl)pyrrolidin-3-yl)methyl dihydrogen phosphate]",> 6.25 µM,0.126 µM,0.204 µM
"C/C(=N\OCCCc1ccccc1)c1ccc(C(=O)N2CCC(N)(COP(=O)(O)O)C2)cc1 (single isomer, unassigned) [Example 62, (E)-(3-amino-1-(4-(1-((3-phenylpropoxy)imino)ethyl)benzoyl)pyrrolidin-3-yl)methyl dihydrogen phosphate]",> 6.25 µM,1.47 µM,0.504 µM
"CC(=NOCC1CC1)c1ccc([C@@H]2CC[C@](N)(COP(=O)(O)O)C2)cc1 [Example 38, ((1R,3R)-1-amino-3-(4-(1-((cyclopropylmethoxy)imino)ethyl)phenyl)cyclopentyl)methyl Dihydrogen Phosphate]",> 30 µM,0.284 µM,> 30 µM
"CC(=NOCc1ccccc1)c1ccc([C@@H]2CC[C@](N)(COP(=O)(O)O)C2)cc1 [Example 39, ((1R,3R)-1-amino-3-(4-(1-((benzyloxy)imino)ethyl)phenyl)cyclopentyl)methyl dihydrogen phosphate]",–,0.865 µM,–
"C/C(=N\OCc1ccc(C2CCCCC2)c(C(F)(F)F)c1)c1ccc([C@@H]2CC[C@](N)(COP(=O)(O)O)C2)cc1 [Example 40, ((1R,3R)-1-amino-3-(4-((E)-1-(((4-cyclohexyl-3-(trifluoromethyl)benzyl)oxy)imino)ethyl)phenyl)cyclopentyl) methyl dihydrogen phosphate]",> 60 µM,0.0283 µM,0.0381 µM
"C/C(=N\OCCCc1ccccc1)c1ccc([C@@H]2CC[C@](N)(COP(=O)(O)O)C2)cc1 [Example 41, ((1R,3R)-1-amino-3-(4-((E)-1-((3-phenylpropoxy)imino)ethyl)phenyl)cyclopentyl) methyl dihydrogen phosphate]",0.773 µM,0.02 µM,0.0253 µM
"CC(=NOCc1ccc([N+](=O)[O-])cc1)c1ccc([C@@H]2CC[C@](N)(COP(=O)(O)O)C2)cc1 [Example 42, ((1R,3R)-1-amino-3-(4-(1-(((4-nitrobenzyl)oxy)imino)ethyl)phenyl)cyclopentyl) methyl dihydrogen phosphate]",> 30 µM,–,0.0176 µM
"CC(=NOCc1ccc(F)cc1)c1ccc([C@@H]2CC[C@](N)(COP(=O)(O)O)C2)cc1 [Example 43, ((1R,3R)-1-amino-3-(4-(1-(((4-fluorobenzyl)oxy)imino)ethyl)phenyl)cyclopentyl) methyl dihydrogen phosphate]",> 30 µM,–,0.0264 µM
"COc1cccc(/C(C)=N/OCc2ccc([C@H]3CC[C@](N)(COP(=O)(O)O)C3)cc2)c1 [Example 54, ((1R,3S)-1-amino-3-(4-(((((E)-1-(3-methoxyphenyl)ethylidene)amino)oxy)methyl)phenyl)cyclopentyl) methyl dihydrogen phosphate]",–,0.0142 µM,–
"CC(=NOCCc1ccccc1)c1ccc(C(=O)N2CCC(N)(COP(=O)(O)O)C2)cc1 (stereo not drawn) [Example 55, (3-amino-1-(4-(1-(phenethoxyimino)ethyl)benzoyl)pyrrolidin-3-yl)methyl Dihydrogen Phosphate]",> 60 µM,–,1.56 µM
"C/C(=N\OCCc1ccccc1)c1ccc(C(=O)N2CCC(N)(COP(=O)(O)O)CC2)cc1 [Example 56, (4-amino-1-(4-(1-(phenethoxyimino)ethyl)benzoyl)piperidin-4-yl)methyl dihydrogen phosphate]",> 60 µM,–,0.295 µM

# Second part, the compound after the results:
EC50 (S1P3),IC50 (S1P1 [1]),EC50 (S1P1 [2]),SMILES
> 6.25 µM,0.183 µM,0.342 µM,"CC/C(=N\OCCCc1ccccc1)c1ccc(C(=O)N2CCC(N)(COP(=O)(O)O)C2)cc1 (single isomer, unassigned) [Example 63, (E)-(3-amino-1-(4-(1-((3-phenylpropoxy)imino)propyl)benzoyl)pyrrolidin-3-yl) methyl dihydrogen phosphate]"
> 6.25 µM,2.53 µM,0.5 µM,"CC/C(=N\OCCCc1ccccc1)c1ccc(C(=O)N2CCC(N)(COP(=O)(O)O)C2)cc1 (single isomer, unassigned) [Example 64, (E)-(3-amino-1-(4-(1-((3-phenylpropoxy)imino)propyl)benzoyl)pyrrolidin-3-yl) methyl dihydrogen phosphate]"
9.37 µM,0.062 µM,0.194 µM,"C/C(=N\OCc1ccc(C2CCCCC2)c(C(F)(F)F)c1)c1ccc(C(=O)N2CCCC(N)(COP(=O)(O)O)C2)cc1 (single isomer, unassigned) [Example 66, (E)-(3-amino-1-(4-(1-(((4-cyclohexyl-3-(trifluoromethyl)benzyl)oxy)imino)ethyl)benzoyl)piperidin-3-yl)methyl dihydrogen phosphate]"
> 18 µM,0.12 µM,0.754 µM,"C/C(=N\OCc1ccc(C2CCCCC2)c(C(F)(F)F)c1)c1ccc(C(=O)N2CCCC(N)(COP(=O)(O)O)C2)cc1 (single isomer, unassigned) [Example 67, (E)-(3-amino-1-(4-(1-(((4-cyclohexyl-3-(trifluoromethyl)benzyl)oxy)imino)ethyl)benzoyl)piperidin-3-yl)methyl dihydrogen phosphate]"
9.37 µM,0.362 µM,0.399 µM,"C/C(=N\OCCCc1ccccc1)c1ccc(C(=O)N2CCCC(N)(COP(=O)(O)O)C2)cc1 (single isomer, unassigned) [Example 68, (E)-(3-amino-1-(4-(1-((3-phenylpropoxy)imino)ethyl)benzoyl)piperidin-3-yl)methyl dihydrogen phosphate]"
–,0.899 µM,0.767 µM,"C/C(=N\OCCCc1ccccc1)c1ccc(C(=O)N2CCCC(N)(COP(=O)(O)O)C2)cc1 (single isomer, unassigned) [Example 69, (E)-(3-amino-1-(4-(1-((3-phenylpropoxy)imino)ethyl)benzoyl)piperidin-3-yl)methyl dihydrogen phosphate]"
> 30 µM,0.0496 µM,0.0444 µM,"C/C(=N\OCCc1ccccc1)c1ccc(C2CC[C@](N)(COP(=O)(O)O)C2)cc1 (stereo in doubt) [Example 73, ((1R,3R)-1-amino-3-(4-((E)-1-(phenethoxyimino)ethyl)phenyl)cyclopentyl)methyl dihydrogen phosphate]"

# — US11059784B2, “Oxime ether compounds” (BRISTOL-MYERS SQUIBB COMPANY, priority 2017, dated 2021)
